One cell line from the supplement of paper PMC10307832 can be followed below.

Common to all, as to assay: relative viability (nuclei count vs DMSO), 5 days (fraction); higher = more cells survive
Compound in the experiment “SGI-1776 + Foretinib”: CN1CCC(CNc2ccc3ncc(-c4cccc(OC(F)(F)F)c4)n3n2)CC1 [SGI-1776] + COc1cc2c(Oc3ccc(NC(=O)C4(C(=O)Nc5ccc(F)cc5)CC4)cc3F)ccnc2cc1OCCCN1CCOCC1 [Foretinib] (partner 0.25 µM)
A digest of the protocol:
(§1)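 Values are medians from duplicate plates. Each reflects relative viability, defined as the nuclei count of treated wells over that of vehicle wells. Lung cancer cell lines in 1536-well plates were pin-tool dosed one day after seeding with one drug alone or with a fixed anchor-drug dose plus five library-drug doses (not always all listed) in √10 steps, then fixed, stained and imaged at 4× after 5 days.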

Compound in the experiment “Entinostat + Foretinib”: Nc1ccccc1NC(=O)c1ccc(CNC(=O)OCc2cccnc2)cc1 [Entinostat] + COc1cc2c(Oc3ccc(NC(=O)C4(C(=O)Nc5ccc(F)cc5)CC4)cc3F)ccnc2cc1OCCCN1CCOCC1 [Foretinib] (partner 0.25 µM)
In outline:
as §1

Compound in the experiment “SGI-1776 + Pictilisib”: CN1CCC(CNc2ccc3ncc(-c4cccc(OC(F)(F)F)c4)n3n2)CC1 [SGI-1776] + CS(=O)(=O)N1CCN(Cc2cc3nc(-c4cccc5[nH]ncc45)nc(N4CCOCC4)c3s2)CC1 [Pictilisib] (partner 1 µM)
In outline: as §1

Compound in experiment [1]: C1COCCN1C2=NC(=NC3=C2OC4=C3C=CC=N4)C5=CC(=CC=C5)NC(=O)C6=CN=C(C=C6)N + COc1cccc2cc(-c3nc([C@H]4CC[C@H](C(=O)O)CC4)n4ncnc(N)c34)[nH]c12 [OSI-027] (partner 0.5 µM)
A digest of the protocol:
as §1

On to UMC-11, for which the relative viability with SGI-1776 + Foretinib (first compound 0.08 µM) is 1.02; in the experiment with SGI-1776 + Foretinib (first compound 0.8 µM), 1.03; with SGI-1776 + Foretinib (first compound 2.53 µM), 1.08; with SGI-1776 + Foretinib (first compound 8 µM) it was 0.791; in the experiment with Entinostat + Foretinib (first compound 0.02 µM), 1.22; in the experiment with Entinostat + Foretinib (first compound 0.06325 µM), 1.08. For the same cell line, the relative viability was 0.834 with Entinostat + Foretinib (first compound 0.2 µM); 0.273 with Entinostat + Foretinib (first compound 0.6325 µM); 0.201 with Entinostat + Foretinib (first compound 2 µM); 0.791 with SGI-1776 + Pictilisib (first compound 0.08 µM); 0.987 with SGI-1776 + Pictilisib (first compound 0.8 µM); 0.812 in the experiment with SGI-1776 + Pictilisib (first compound 2.53 µM). For the same cell line, the relative viability with SGI-1776 + Pictilisib (first compound 8 µM) came to 0.498; in experiment [1] (first compound 0.02 µM), 0.443; in experiment [1] (first compound 0.06325 µM) it was 0.511; in experiment [1] (first compound 0.2 µM), 0.46; in experiment [1] (first compound 0.6325 µM), 0.406; in experiment [1] (first compound 2 µM), 0.375.
